Assays:
[1] = pKa of the acid herbicide in the formulation, measured; format: physicochemical; conditions: 2,4-D acid in PCC-1133; glyphosate acid in PCC-1168
[2] = per approximately 100 grams of an aqueous solution (one weight percent); depending on temperature and pH; cited from earlier work

SMILES | pKa [1] | solubility in water or acidic water [2]
O=C(O)CNCP(=O)(O)O [glyphosate acid, N-(phosphonomethyl)glycine] | ~2.5 | approximately 1 gram
O=C(O)COc1ccc(Cl)cc1Cl [2,4-D acid, 2,4-dichlorophenoxy acetic acid] | 2.87 | –
